Key:
[1] = test system: SK-BR-3, BT-474, MDA-MB-231, NCI-H1975, MKN-74 and NCI-N87; assay: proliferation inhibition at the same concentration, WST-1 assay, cancer cells (DOX series); assay type: cell-based; details: Homo sapiens, 144 hours, read-out: cell proliferation inhibitory effect compared to the untreated group, cancer cells
Experimental: (§1) 200 μg of MT^α-HER2scFv and 100 μM doxorubicin (DOX) were reacted in the same manner as in Preparation Example 2 above. In order to compare the influence of the obtained DOX_MT^α-HER2scFv on cell proliferation in cancer cells and normal cells, after treatment with DOX_MT^α-HER2scFv at the same concentration in the human breast cancer, lung cancer, gastric cancer cell lines and the lung fibroblast cell line, the cell proliferation inhibitory ability was measured.
(§2) Specifically, the human breast cancer (SK-BR-3, BT-474 and MDA-MB-231), lung cancer (NCI-H1975), gastric cancer (MKN-74 and NCI-N87) cell lines and the lung fibroblast cell line (CCD-8Lu and WI-38) were inoculated into a 96-well plate at about 3×10^3 cells/well, respectively, and cultured for 24 hours. At this time, SK-BR-3, BT-474 and NCI-N87 cells were cultured in RPMI-1640 medium containing 10% FBS. MDA-MB-231, NCI-H1975, MKN-74, CCD-8Lu, and WI-38 cells were cultured in DMEM medium containing 10% FBS. After culturing for 24 hours, the cells were treated with 0.5 μM doxorubicin (DOX) or DOX_MT^α-HER2scFv respectively, and after 144 hours, the cell proliferation inhibitory ability was evaluated by WST-1 assay. […] Statistical processing was performed using Graphpad 5.0 software, and p values were measured with one-way ANOVA (Turkey's) test (*p<0.05, **p<0.01, and ***p<0.001).

[2] = test system: SK-BR-3, BT-474, MDA-MB-231, NCI-H1975, NCI-N87 and MKN-74; assay: cancer cell proliferation inhibition for each concentration, WST-1 assay (DOX series); assay type: cell-based, human; details: 0.01 to 2 μM, 144 hours, versus untreated group (NC)
Experimental: Specifically, the human breast cancer (SK-BR-3, BT-474 and MDA-MB-231), lung cancer (NCI-H1975) and gastric cancer (NCI-N87 and MKN-74) cell lines were inoculated into a 96-well plate at about 3×10^3 cells/well, respectively, and cultured for 24 hours. At this time, SK-BR-3, BT-474 and NCI-N87 cells were cultured in RPMI-1640 medium containing 10% FBS, and MDA-MB-231, NCI-H1975 and MKN-74 cells were cultured in DMEM medium containing 10% FBS. After culturing for 24 hours, each cell was treated with doxorubicin (DOX) or DOX_MT^α-HER2scFv at a concentration of 2 μM, 1 μM, 0.5 μM, 0.25 μM, 0.1 μM, 0.05 μM, 0.025 μM, and 0.01 μM. After 144 hours of sample treatment, cell proliferation was measured by WST-1 assay.

[3] = test system: human lung fibroblast cell lines WI-38 and CCD-8Lu; assay: proliferation inhibition in normal cells for each concentration, WST-1 assay (DOX series); assay type: cell-based; details: 0.01 to 2 μM, 144 hours
Experimental: 200 μg of MT^α-HER2scFv and 100 μM doxorubicin (DOX) were reacted in the same manner as in Preparation Example 2 above. In order to confirm the influence of the obtained DOX_MT^α-HER2scFv on cell proliferation in normal cells, the cell proliferation inhibitory effect by treatment with DOX_MT^α-HER2scFv in human lung fibroblasts was evaluated.
Specifically, the human lung fibroblast cell lines WI-38 and CCD-8Lu were inoculated into a 96-well plate at about 3×10^3 cells/well, respectively, and cultured for 24 hours. At this time, WI-38 and CCD-8Lu were cultured in DMEM medium containing 10% FBS. After culturing for 24 hours, each cell was treated with doxorubicin (DOX) or DOX_MT^α-HER2scFv at a concentration of 2 μM, 1 μM, 0.5 μM, 0.25 μM, 0.1 μM, 0.05 μM, 0.025 μM, and 0.01 μM. After 144 hours of sample treatment, cell proliferation was measured by WST-1 assay.

[4] = test system: lung fibroblast cell line (CCD-8Lu and WI-38); assay: proliferation inhibition at the same concentration, WST-1 assay, normal cells (DOX series); assay type: cell-based; details: Homo sapiens, 144 hours, read-out: cell proliferation inhibitory effect compared to the untreated group, normal cells
Experimental: as §1, §2

[5] = test system: mouse melanoma cell line B16F10 overexpressing human HER2, allograft; assay: anticancer activity of DOX_MT^α-HER2scFv in allograft tumor animal model; assay type: in vivo; details: MT^α-HER2scFv 20 μg, DOX 4 μg, DOX_MT^α-HER2scFv 4 μg/20 μg, intravenously 3 times a week for 3 weeks
Source text: 7-week-old C57BL/6 female mice (Samtako Bio Korea) were acclimatized for 1 week, and then the mouse melanoma cell line B16F10 was subcutaneously transplanted into the lateral abdomen of the mice at about 5×10^5 cells/mouse to construct an allograft tumor mouse. At this time, B16F10 cells in which the human HER2 gene was overexpressed using lentivirus were used as B16F10 cells. When the average volume of the tumor reached 100˜200 mm^3, the mice were divided into 4 groups of 3 mice per test group, and MT^α-HER2scFv (20 μg), DOX (4 μg) or DOX_MT^α-HER2scFv (TPP-DOX/MT: 4 μg/20 μg) was intravenously administered 3 times a week for 3 weeks. The tumor size was measured 3 times a week, and after the end of the experiment (after 3 weeks from the start of administration), the tumor tissues of the mice were extracted, and the size and weight were measured (FIG. 73).

[6] = test system: HER2^+ human gastric cancer cell line NCI-N87 xenograft; assay: anticancer activity in NCI-N87 xenograft tumor mouse model; assay type: in vivo; details: 4 μg intravenously
Experimental: 5-week-old BALB/c male nude mice (initial body weight of 18˜20 g) (Nara Biotech) were acclimatized for 1 week, and then HER2^+ human gastric cancer cell line NCI-N87 was subcutaneously transplanted into the lateral abdomen at 1×10^7 cells/mouse to construct a xenograft tumor model mouse. […] The tumor size was measured at an interval of 2˜4 days, and after 25 days from the start of administration, the tumor tissues were extracted, and the size and weight were measured (FIG. 65).

[7] = test system: SK-BR-3, BT-474, MDA-MB-231, NCI-H1975, NCI-N87 and MKN-74; assay: cancer cell proliferation inhibition for each concentration, WST-1 assay (TPP-DOX series); assay type: cell-based, human; details: 0.01 to 2 μM, 144 hours, versus untreated group (NC)
Experimental: After culturing for 24 hours, each cell was treated with TPP-DOX or TPP-DOX_MT^α-HER2scFv at a concentration of 2 μM, 1 μM, 0.5 μM, 0.25 μM, 0.1 μM, 0.05 μM, 0.025 μM and 0.01 μM. […] At this time, the mitochondria-only treated group (MT, MT^α-HER2scFv) was used as a negative control for TPP-DOX MT^α-HER2scFv.

[8] = test system: lung fibroblast cell line (CCD-8Lu and WI-38); assay: proliferation inhibition at the same concentration, WST-1 assay, normal cells (TPP-DOX series); assay type: cell-based, human; details: 0.5 μM, 144 hours
Experimental: At this time, the mitochondria-only treated group (MT^α-HER2scFv) was used as a negative control for TPP-DOX_MT^α-HER2scFv. Statistical processing was performed using Graphpad 5.0 software, and p values were measured with one-way ANOVA (Turkey's) test (*p<0.05, **p<0.01 and ***p<0.001).

[9] = test system: mouse melanoma cell line B16F10 overexpressing human HER2, allograft; assay: anticancer activity of TPP-DOX_MT^α-HER2scFv in allograft tumor mouse model; assay type: in vivo; details: MT^α-HER2scFv 20 μg, TPP-DOX 5 μg, TPP-DOX/MT 5 μg/20 μg, intravenously 3 times a week for 3 weeks
Experimental: 7-week-old C57BL/6 female mice (Samtako Bio Korea) were acclimatized for 1 week, and then the mouse melanoma cell line B16F10 was subcutaneously transplanted into the lateral abdomen of the mice at about 5×10^5 cells/mouse to construct an allograft tumor mouse. […] When the average volume of the tumor reached 100˜200 mm^3, the mice were divided into 4 groups of 3 mice per test group, and MT^α-HER2scFv (20 μg), TPP-DOX (5 μg) or TPP-DOX_MT^α-HER2scFv (TPP-DOX/MT: 5 μg/20 μg) was intravenously administered 3 times a week for 3 weeks. The tumor size was measured 3 times a week, and after the end of the experiment (after 3 weeks from the start of administration), the tumor tissues of the mice were extracted, and the size and weight were measured (FIG. 69).

[10] = test system: human lung fibroblast cell lines WI-38 and CCD-8Lu; assay: proliferation inhibition in normal cells for each concentration, WST-1 assay (TPP-DOX series); assay type: cell-based; details: 0.01 to 2 μM, 144 hours
Experimental: Specifically, the human lung fibroblast cell lines WI-38 and CCD-8Lu were inoculated into a 96-well plate at about 3×10^3 cells/well, respectively, and cultured for 24 hours. At this time, WI-38 and CCD-8Lu were cultured in DMEM medium containing 10% FBS. After culturing for 24 hours, each cell was treated with TPP-DOX or TPP-DOX_MT^α-HER2scFv at a concentration of 2 μM, 1 μM, 0.5 μM, 0.25 μM, 0.1 μM, 0.05 μM, 0.025 μM and 0.01 μM. […] At this time, the mitochondria-only treated group (MT, MT^α-HER2scFv) was used as a negative control for TPP-DOX MT^α-HER2scFv.

PDL1 = target: T1, PDL1 (human, UniProt Q9NZQ7 19-290); assay: confocal microscopy, MitoTracker Red-stained scFv-fused mitochondria on co-cultured BXPC-3 (PDL1+) and CFPAC-1 (PDL1-) cells
T1 construct: whole, on cells; also called PDL1 antigen
Experimental: Mitochondria to be used as samples were prepared by treating untreated HEK293 cells (MT) and HEK293 cells comprising mitochondria fused with an anti-PDL1scFv antibody (MT^{α-PDL1scFv}) with MitoTracker Red to stain the mitochondria, and then isolating the mitochondria. After co-culture for 24 hours, each isolated mitochondrion was treated with the co-cultured cells and reacted for 24 hours (FIG. 47).
The cells treated in the same manner as in Example 4 above were washed once with PBS, and fixed by adding 3.7% formaldehyde at room temperature for 30 minutes, and then immunocytochemistry staining was performed. At this time, an anti-PDL1 antibody (Cell signaling, 86744) was used as a primary antibody, and Alexa Fluor 488 goat anti-rabbit IgG (H+L) was used as a secondary antibody. The nuclei of the cells were observed by staining with DAPI.

T1 sequence (Q9NZQ7 19-290): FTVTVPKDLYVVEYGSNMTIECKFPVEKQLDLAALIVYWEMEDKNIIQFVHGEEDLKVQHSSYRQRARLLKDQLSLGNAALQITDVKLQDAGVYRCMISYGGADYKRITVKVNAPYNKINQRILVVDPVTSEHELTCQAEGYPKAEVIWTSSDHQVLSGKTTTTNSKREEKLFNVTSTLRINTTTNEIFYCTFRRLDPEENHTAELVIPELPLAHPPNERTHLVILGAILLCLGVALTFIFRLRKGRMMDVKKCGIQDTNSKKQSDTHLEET

Q: Which results are given for `COc1cccc2c1C(=O)c1c(O)c3c(c(O)c1C2=O)C[C@@](O)(C(=O)CO)C[C@@H]3O[C@H]1C[C@H](N)[C@H](O)[C@H](C)O1` [DOX, doxorubicin]?
A: inhibition at 0.5 µM [1]: 50 to 80%; cell proliferation inhibitory effect [2]: inhibited in a concentration-dependent manner; cell proliferation inhibitory ability in normal cells [3]: weaker than that of cancer cells; inhibition at 0.5 µM [4]: ≤ 25%; tumor size compared to the control group (CTR) [5]: significantly reduced

Q: With “triphenylphosphonium (TPP)-doxorubicin [TPP-DOX]” as the molecule, how does the “tumor size by date compared to the control group (CTR)” value [6] read?
A: The value was “similar”.

Q: And the “cell proliferation inhibitory effect” value [7]?
A: Its value is “inhibited in a concentration-dependent manner”.

Q: What about the “proliferation inhibitory ability, normal cells” value [8] of the same molecule?
A: Its value is “weak”.

Q: And the “tumor size compared to the control group (CTR)” value [9]?
A: The value was “similar”.

Q: And the “cell proliferation inhibitory ability in normal cells” value [10]?
A: Its value is “weaker than that of cancer cells”.

B1: anti-PDL1scFv antibody fused to the mitochondrial outer membrane (scFvPDL1-myc-TOM7) (scFv)
scFv: MDIVMSQSPSSLAVSAGEKVTMSCKSSQSLLNSRTRKNYLAWYQQKPGQSPKLLIYWASTRESGVPDRFTGSGSGTDFTLTISSVQAEDLAVYYCQQSYDVVTFGAGTKLELKGGGGSGGGGSGGGGSQVQVQQSGAELAEPGASVKMSCKASGYIFTSYWMHWLKQRPGQGLEWIGYINPSSDYNEYSEKFMDKATLTADKASTTAYMQLISLTSEDSAVYYCARSGWLVHGDYYFDYWGQGTTLTVSSEQKLISEEDLVKLSKEAKQRLQQLFKGSQFAIRWGFIPLVIYLGFKRGADPGMPEPTVLSLLWG
notes: In the assay the fusion protein was anchored on the outer membrane of mitochondria isolated from HEK293 cells (MT^α-PDL1scFv); also called MT^α-PDL1scFv; single chain variable region fragment of an anti-PDL1 antibody
Q: Does B1 bind (PDL1)?
A: Result: binds

Reference: patent US20230372529A1, “MITOCHONDRIA COMPRISING ANTICANCER DRUG AND USE THEREOF” (Paean Biotechnology Inc., priority 2020, published 2023)
